Measured values reported in patent publication US20020192253A1, “Peeling composition” (priority 1999, published 2002).
Where a name gives a salt, the structure may show the parent alone.

Test system: skin
Assay: Photodynamic peeling: ointment applied to facial skin, then 635 nm excimer dye laser irradiation
Settings: for time at which peeling was completed after the operation: 635 nm
[1] = Example 1: 10 g of 20% ointment, left half of face, 4 hours, 5 J/cm^2 for 30 minutes
[2] = Example 2: 5 g of 20% ointment, right cheek, 12 hours, 5 J/cm^2 for 15 minutes

NCC(=O)CCC(=O)O [5-ALA hydrochloride, 5-aminolevulinic acid]
condition of treated part in follow-up survey (Example 1: 6 months after the treatment): still remained in favorable conditions | day from which edematous erythema gradually disappeared [1]: 3 days | skin reaction at the affected part after irradiation [1]: edematous erythema was formed at the affected part | time at which peeling was completed after the operation (Example 1: person, 10 g of 20% by weight ointment on left half of face, 4 hours shaded, 5 J/cm^2 for 30 minutes): 3 weeks | skin tension, wrinkles, pigmentation, acne spots compared with the untreated right part of the face (Example 1: treated left versus right part of face): obviously relieved | day from which edematous erythema gradually disappeared [2]: 3 days | skin reaction at the affected part after irradiation [2]: edematous erythema was formed at the affected part | condition of treated part in follow-up survey (Example 2: 6 months after the treatment): still remained in favorable conditions | time at which peeling was completed after the operation (Example 2: person, 5 g of 20% by weight ointment on right cheek (6 cm×6 cm), 12 hours shaded, 5 J/cm^2 for 15 minutes): 6 days | skin tension, wrinkles, pigmentation, acne spots compared with the corresponding part in the left cheek (Example 2: treated right cheek versus left cheek): obviously relieved
